# Data published in patent US11124554B2, “Modified ligand-gated ion channels and methods of use” (Howard Hughes Medical Institute, priority 2016, dated 2021).
# “Also recorded” adds a separate entry of the source. Where two headings read alike, the source gives them in different places.
# Tests used:
# α7^L131G-5HT3 HC = test: Agonist potency at chimeric channel (Table 9); type: cell-based, human; details: α7^L131G-5HT3 HC
# α7-5HT3 = biological target: T1, α7-5HT3 (Homo sapiens, UniProt P36544, M226I/T225I); test: Agonist potency (EC50), HEK cells expressing chimeric channel; type: cell-based, human α7 nAChR LBD, murine 5HT3 IPD
# T1 construct: expressed in transfected cells; host or cells: HEK cells
# T1 sequence (P36544 with tags, fused parts or gaps T225I/M226I): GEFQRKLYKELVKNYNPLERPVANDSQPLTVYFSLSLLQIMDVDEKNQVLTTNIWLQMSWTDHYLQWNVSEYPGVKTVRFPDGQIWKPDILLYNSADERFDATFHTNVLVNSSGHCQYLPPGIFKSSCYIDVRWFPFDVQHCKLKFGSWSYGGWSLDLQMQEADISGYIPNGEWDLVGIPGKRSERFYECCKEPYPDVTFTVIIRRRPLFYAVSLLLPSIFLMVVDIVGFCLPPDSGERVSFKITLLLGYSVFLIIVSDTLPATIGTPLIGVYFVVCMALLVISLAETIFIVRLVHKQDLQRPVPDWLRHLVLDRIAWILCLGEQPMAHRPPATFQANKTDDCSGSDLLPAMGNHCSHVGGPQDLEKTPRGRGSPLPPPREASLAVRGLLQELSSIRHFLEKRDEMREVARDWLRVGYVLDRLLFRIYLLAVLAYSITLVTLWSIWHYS
# α7^Q79G,Y115F,G175K-GlyR = biological target: T2, α7^Q79G,Y115F,G175K-GlyR (Homo sapiens, UniProt P36544, G175K/Q79G/Y115F); test: Agonist potency at chimeric channel; type: cell-based; details: Table 6; read-out: Potency, a7Gly Q79G G175K Y115F
# T2 construct: expressed in transfected cells
# T2 sequence (P36544 with tags, fused parts or gaps Q79G/Y115F/G175K): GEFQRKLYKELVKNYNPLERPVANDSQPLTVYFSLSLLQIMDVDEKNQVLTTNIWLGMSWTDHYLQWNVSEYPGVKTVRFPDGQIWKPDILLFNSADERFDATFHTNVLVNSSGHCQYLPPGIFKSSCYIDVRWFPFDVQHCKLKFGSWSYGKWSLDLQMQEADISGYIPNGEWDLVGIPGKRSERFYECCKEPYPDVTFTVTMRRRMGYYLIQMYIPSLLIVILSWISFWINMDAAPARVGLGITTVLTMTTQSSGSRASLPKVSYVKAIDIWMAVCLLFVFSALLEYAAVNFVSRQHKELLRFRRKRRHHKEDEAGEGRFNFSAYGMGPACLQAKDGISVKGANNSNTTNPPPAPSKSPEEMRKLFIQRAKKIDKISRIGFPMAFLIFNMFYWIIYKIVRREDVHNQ
# α7^G175K-GlyR = biological target: T3, α7^G175K-GlyR (Homo sapiens, UniProt P36544, G175K); test: Agonist potency at chimeric channel; type: cell-based; details: for EC50: Table 6, read-out: Potency, a7GlyR G175K
# T3 construct: expressed in transfected cells
# T3 sequence (P36544 with tags, fused parts or gaps G175K): as the sequence (P36544 with tags, fused parts or gaps Q79G/Y115F/G175K) above, with G57Q, F93Y counted along it
# α7^W77F,Q79G,G175K-GlyR = biological target: T4, α7^W77F,Q79G,G175K-GlyR (Homo sapiens, UniProt P36544, G175K/Q79G/W77F); test: Agonist potency at chimeric channel; type: cell-based; details: Table 6; read-out: Potency, a7GlyR W77F Q79G G175K
# T4 construct: expressed in transfected cells
# T4 sequence (P36544 with tags, fused parts or gaps W77F/Q79G/G175K): as the sequence (P36544 with tags, fused parts or gaps Q79G/Y115F/G175K) above, with W55F, F93Y counted along it
# α7^Y115F,G175K-GlyR = biological target: T5, α7^Y115F,G175K-GlyR (Homo sapiens, UniProt P36544, G175K/Y115F); test: Agonist potency at chimeric channel; type: cell-based; details: for EC50: Table 6, read-out: Potency, a7GlyR Y115F G175K
# T5 construct: expressed in transfected cells
# T5 sequence (P36544 with tags, fused parts or gaps Y115F/G175K): as the sequence (P36544 with tags, fused parts or gaps Q79G/Y115F/G175K) above, with G57Q counted along it
# α7^Q79G-5HT3 = biological target: T6, α7^Q79G-5HT3 (Homo sapiens, UniProt P36544, M226I/Q79G/T225I); test: Agonist potency (EC50), HEK cells expressing chimeric channel; type: cell-based, human α7 nAChR LBD, murine 5HT3 IPD; details: HEK cells; Table 1; read-out: Mean EC50, α7^Q79G-5HT3
# T6 construct: expressed in transfected cells; host or cells: HEK cells
# T6 sequence (P36544 with tags, fused parts or gaps Q79G/T225I/M226I): as the sequence (P36544 with tags, fused parts or gaps T225I/M226I) above, with Q57G counted along it
# α7^Q79G-GlyR^A298G = biological target: T7, α7^Q79G-GlyR^A298G (Homo sapiens, UniProt P36544, A298G/Q79G); test: as above; type: cell-based; details: HEK cells
# T7 construct: expressed in transfected cells; host or cells: HEK cells
# T7 sequence (P36544 with tags, fused parts or gaps Q79G): as the sequence (P36544 with tags, fused parts or gaps Q79G/Y115F/G175K) above, with F93Y, K153G, A276G counted along it
# α7-GlyR^A298G = biological target: T8, α7-GlyR^A298G (Homo sapiens, UniProt P36544, A298G); test: as above; type: cell-based; details: HEK cells; Table 2; read-out: Mean EC50 and SEM in parentheses, α7-GlyR^A298G
# T8 construct: expressed in transfected cells; host or cells: HEK cells
# T8 sequence (P36544 with tags, fused parts or gaps, stated change not applied): as the sequence (P36544 with tags, fused parts or gaps Q79G/Y115F/G175K) above, with G57Q, F93Y, K153G, A276G counted along it
# α7^Q79G-GlyR = biological target: T9, α7^Q79G-GlyR (Homo sapiens, UniProt P36544, Q79G); test: as above; type: cell-based; details: HEK cells; Table 2; read-out: Mean EC50 and SEM in parentheses, α7^Q79G-GlyR
# T9 construct: expressed in transfected cells; host or cells: HEK cells
# T9 sequence (P36544 with tags, fused parts or gaps Q79G): as the sequence (P36544 with tags, fused parts or gaps Q79G/Y115F/G175K) above, with F93Y, K153G counted along it
# α7^Q79A-GlyR = biological target: T10, α7^Q79A-GlyR (Homo sapiens, UniProt P36544, Q79A); test: as above; type: cell-based; details: HEK cells; Table 2; read-out: Mean EC50 and SEM in parentheses, α7^Q79A-GlyR
# T10 construct: expressed in transfected cells; host or cells: HEK cells
# T10 sequence (P36544 with tags, fused parts or gaps Q79A): as the sequence (P36544 with tags, fused parts or gaps Q79G/Y115F/G175K) above, with G57A, F93Y, K153G counted along it
# α7-GlyR = biological target: T11, α7-GlyR (Homo sapiens, UniProt P36544); test: as above; type: cell-based; details: HEK cells
# T11 construct: expressed in transfected cells; host or cells: HEK cells
# T11 sequence (P36544 with tags, fused parts or gaps): as the sequence (P36544 with tags, fused parts or gaps Q79G/Y115F/G175K) above, with G57Q, F93Y, K153G counted along it
# α7^Q79S-5HT3 = biological target: T12, α7^Q79S-5HT3 (Homo sapiens, UniProt P36544, M226I/Q79S/T225I); test: as above; type: cell-based, human α7 nAChR LBD, murine 5HT3 IPD; details: HEK cells; Table 1; read-out: Mean EC50, α7^Q79S-5HT3
# T12 construct: expressed in transfected cells; host or cells: HEK cells
# T12 sequence (P36544 with tags, fused parts or gaps Q79S/T225I/M226I): as the sequence (P36544 with tags, fused parts or gaps T225I/M226I) above, with Q57S counted along it
# α7^Q79A-5HT3 = biological target: T13, α7^Q79A-5HT3 (Homo sapiens, UniProt P36544, M226I/Q79A/T225I); test: as above; type: cell-based, human α7 nAChR LBD, murine 5HT3 IPD; details: HEK cells; Table 1; read-out: Mean EC50, α7^Q79A-5HT3
# T13 construct: expressed in transfected cells; host or cells: HEK cells
# T13 sequence (P36544 with tags, fused parts or gaps Q79A/T225I/M226I): as the sequence (P36544 with tags, fused parts or gaps T225I/M226I) above, with Q57A counted along it
# α7^Q79G,G175K-GlyR = biological target: T14, α7^Q79G,G175K-GlyR (Homo sapiens, UniProt P36544, G175K/Q79G); test: Agonist potency at chimeric channel; type: cell-based; details: Table 6; read-out: Potency, a7GlyR Q79G G175K
# T14 construct: expressed in transfected cells
# T14 sequence (P36544 with tags, fused parts or gaps Q79G/G175K): as the sequence (P36544 with tags, fused parts or gaps Q79G/Y115F/G175K) above, with F93Y counted along it
# [1] = biological target: T15, α7GlyR Q79G G175K Y115F R27D E41R (Homo sapiens, UniProt P36544, E41R/G175K/Q79G/R27D/Y115F); test: Agonist potency at chimeric channel; type: cell-based; details: Table 6; read-out: Potency, a7GlyR Q79G G175K Y115F R27D E41R
# T15 construct: expressed in transfected cells
# T15 sequence (P36544 with tags, fused parts or gaps R27D/E41R/Q79G/Y115F/G175K): as the sequence (P36544 with tags, fused parts or gaps Q79G/Y115F/G175K) above, with R5D, E19R counted along it
# [2] = system: α7GlyR chimeric channels with G175K and A298G mutations; type: cell-based, human
# α7^Y115F-GlyR G175F = biological target: T16, α7^Y115F-GlyR G175F (Homo sapiens, UniProt P36544, G175F/Y115F); test: Agonist potency at chimeric channel (Table 8); type: cell-based; details: relative to α7^Y115F-GlyR
# T16 construct: expressed in transfected cells
# T16 sequence (P36544 with tags, fused parts or gaps Y115F/G175F): as the sequence (P36544 with tags, fused parts or gaps Q79G/Y115F/G175K) above, with G57Q, K153F counted along it
# α7^Q79S,L131G,Q139L-GlyR = biological target: T17, α7^Q79S,L131G,Q139L-GlyR (Homo sapiens, UniProt P36544, L131G/Q139L/Q79S); test: cell-based; type: cell-based; details: α7^Q79S,L131G,Q139L-GlyR
# T17 construct: expressed in transfected cells
# T17 sequence (P36544 with tags, fused parts or gaps Q79S/L131G/Q139L): as the sequence (P36544 with tags, fused parts or gaps Q79G/Y115F/G175K) above, with G57S, F93Y, L109G, Q117L, K153G counted along it
# α7^Y115F-GlyR G175V = biological target: T18, α7^Y115F-GlyR G175V (Homo sapiens, UniProt P36544, G175V/Y115F); test: Agonist potency at chimeric channel (Table 8); type: cell-based; details: relative to α7^Y115F-GlyR
# T18 construct: expressed in transfected cells
# T18 sequence (P36544 with tags, fused parts or gaps Y115F/G175V): as the sequence (P36544 with tags, fused parts or gaps Q79G/Y115F/G175K) above, with G57Q, K153V counted along it
# α7^Y115F-GlyR G175S = biological target: T19, α7^Y115F-GlyR G175S (Homo sapiens, UniProt P36544, G175S/Y115F); test: Agonist potency at chimeric channel (Table 8); type: cell-based; details: relative to α7^Y115F-GlyR
# T19 construct: expressed in transfected cells
# T19 sequence (P36544 with tags, fused parts or gaps Y115F/G175S): as the sequence (P36544 with tags, fused parts or gaps Q79G/Y115F/G175K) above, with G57Q, K153S counted along it
# α7^Y115F-GlyR G175R = biological target: T20, α7^Y115F-GlyR G175R (Homo sapiens, UniProt P36544, G175R/Y115F); test: Agonist potency at chimeric channel (Table 8); type: cell-based; details: relative to α7^Y115F-GlyR
# T20 construct: expressed in transfected cells
# T20 sequence (P36544 with tags, fused parts or gaps Y115F/G175R): as the sequence (P36544 with tags, fused parts or gaps Q79G/Y115F/G175K) above, with G57Q, K153R counted along it
# α7^Q79S,L131G-GlyR = biological target: T21, α7^Q79S,L131G-GlyR (Homo sapiens, UniProt P36544, L131G/Q79S); test: Agonist potency at chimeric channel (Table 9); type: cell-based; details: α7^Q79S,L131G-GlyR
# T21 construct: expressed in transfected cells
# T21 sequence (P36544 with tags, fused parts or gaps Q79S/L131G): as the sequence (P36544 with tags, fused parts or gaps Q79G/Y115F/G175K) above, with G57S, F93Y, L109G, K153G counted along it
# [3] = system: mouse cortical neurons transduced with α7^Q79G,Y115F,G175K-GlyR; test: Action potential firing of transduced cortical neurons; type: cell-based; details: 100 nM; current injection; restored after washout
# Text: FIGS. 8A-8C show activity of agonists on chimeric LGICs with a G175K mutation. FIG. 8A) A graph of EC50s for Q79G G175K LBD mutants against known agonists normalized to the unmodified α7-GlyR chimeric channel (log scale). […] Unmod.: unmodified α7-GlyR chimeric LGIC. FIG. 8C) Action potentials of cortical neurons from a mouse brain transduced with α7^Q79G,Y115F,G175K-GlyR chimeric LGIC. […] After washout (WASH) of tropisetron, neuron firing is restored
# (§1) AAVs or DNA plasmids containing nucleic acids encoding a α7^Q79G-GlyR^A298G or α7Q79G,Y115F,G175K-GlyR chimeric LGICs were transduced into mouse cortical neurons. […] Neuron activity was silenced by application of low concentration of agonist (FIG. 7 and FIG. 8C).
# [4] = system: mouse cortical neurons transduced with α7^Q79G-GlyR^A298G; test: as above; type: cell-based; details: 30 nM; 40 pA current injection; restored after washout
# Text: After washout (WASH) of tropisetron, neuron firing is restored.
# as §1
# [5] = Table 6, read-out: Potency, a7-5HT3
# [6] = α7GlyR Q79G A298G G175K Y115F; read-out: Agonist potency
# [7] = HEK cells, Table 3, read-out: α7-5HT3 EC50
# [8] = Table 3, read-out: α7^Q79G-GlyR^A298G EC50
smiles,measurement,setting,value
CC(=O)OCC[N+](C)(C)C [Acetylcholine],reduced ACh responsiveness,α7^L131G-5HT3 HC; reduction,5 fold
CN1C2CCC1CC(NC(=S)c1cn(C)c3ccccc13)C2 (centres unmarked) [Compound 622],EC50,α7-5HT3; [5],> 100000 nM
same,EC50,"α7^Q79G,Y115F,G175K-GlyR",930 nM
same,EC50,α7^G175K-GlyR,870 nM
same,EC50,"α7^W77F,Q79G,G175K-GlyR",1700 nM
same,EC50,"α7^Y115F,G175K-GlyR",2500 nM
Cn1cc(C(=O)C(=O)NC2CN3CCC2CC3)c2ccccc21 (centres unmarked) [RS56812],EC50,"α7-5HT3; HEK cells, Table 1, read-out: Mean EC50, α7-5HT3",10000 nM
same,EC50,α7^Q79G-5HT3,1400 nM
same,EC50,"α7^Q79G-GlyR^A298G; Table 2, read-out: Mean EC50 and SEM in parentheses, α7^Q79G-GlyR^A298G",610 nM
same,EC50,α7-GlyR^A298G,2300 nM
same,EC50,α7^Q79G-GlyR,2000 nM
same,EC50,α7^Q79A-GlyR,3500 nM
same,EC50,"α7-GlyR; Table 2, read-out: Mean EC50 and SEM in parentheses, α7 GlyR",6500 nM
same,EC50,α7^Q79S-5HT3,5700 nM
same,EC50,α7^Q79A-5HT3,6800 nM
COc1ccc2[nH]cc(C(=O)O[C@H]3C[C@H]4CC[C@@H](C3)N4C)c2c1 [Compound 736],EC50,α7-5HT3; [5],830 nM
same,EC50,"α7^Q79G,G175K-GlyR",44 nM
same,EC50,"α7^Q79G,Y115F,G175K-GlyR",78 nM
same,EC50,"α7^W77F,Q79G,G175K-GlyR",60 nM
same,EC50,"α7^Y115F,G175K-GlyR",570 nM
same,EC50,[1],78 nM
O=C(O[C@H]1C[C@H]2CC[C@@H](C1)N2)c1c[nH]c2ccccc12 [Nortropisetron],EC50,[2]; [6],8.4 nM
same,EC50,[2]; α7GlyR Q79G A298G Y115F K395 K396A; read-out: Agonist potency,6.3 nM
CN1CCCC1c1cccnc1 (centres unmarked) [Nicotine],EC50,[2]; read-out: Agonist potency; α7GlyR Q79G A298G G175K Y115F,3300 nM
same,EC50,[2]; read-out: Agonist potency; α7GlyR Q79G A298G P2161,1600 nM
same,EC50,[2]; read-out: Agonist potency; α7GlyR Q79G A298G Y115F K395 K396A,16500 nM
same,EC50,[2]; read-out: Agonist potency; α7GlyR Q79G G175K A298G,110 nM
same,EC50,[2]; read-out: Agonist potency; α7GlyR Q79G W77F A298G,3800 nM
same,potency enhancement over α7-GlyR,α7^G175K-GlyR,10 fold
FC(F)(F)Oc1ccc(NC(=S)N[C@@H]2CN3CCC2CC3)cc1 [Compound 713],EC50,α7-5HT3; [5],> 100000 nM
same,EC50,"α7^Q79G,G175K-GlyR",540 nM
same,EC50,"α7^Q79G,Y115F,G175K-GlyR",23900 nM
same,EC50,α7^G175K-GlyR,2100 nM
same,EC50,"α7^Y115F,G175K-GlyR",> 10000 nM
same,EC50,[1],> 10000 nM
COc1ccc(OC)c(C(=O)NC2C3CCN(CC3)C2Cc2cccnc2)c1 (mixture of isomers) [Compound 0434],EC50,α7-5HT3; [7],> 10000 nM
same,EC50,α7^Q79G-GlyR^A298G; [8],190 nM
same,EC50,"α7-GlyR; Table 3, read-out: α7-GlyR EC50",> 10000 nM
CN1[C@@H]2CC[C@H]1C[C@@H](OC(=O)c1c[nH]c3ccccc13)C2 [Tropisetron],potency enhancement at α7^Y115F-GlyR by additional mutation G175F,α7^Y115F-GlyR G175F,2 fold
same,EC50,[2]; [6],2.8 nM
same,EC50,[2]; α7GlyR Q79G G175K A298G; read-out: Agonist potency,0.6 nM
same,potency enhancement,α7^L131G-5HT3 HC,2.3 fold
same,improved potency over α7-GlyR,"α7^Q79S,L131G,Q139L-GlyR",3 fold
same,potency enhancement at α7^Y115F-GlyR by additional mutation G175V,α7^Y115F-GlyR G175V,16.7 fold
same,potency enhancement at α7^Y115F-GlyR by additional mutation G175S,α7^Y115F-GlyR G175S,9.3 fold
same,potency enhancement at α7^Y115F-GlyR by additional mutation G175R,α7^Y115F-GlyR G175R,5.8 fold
same,improved potency over α7-GlyR,"α7^Q79S,L131G-GlyR",15 fold
same,suppression of action potential firing,[3],silenced; also recorded: potently suppressed
same,potency enhancement at α7^Y115F-GlyR by additional mutation G175K,"α7^Y115F,G175K-GlyR; relative to α7^Y115F-GlyR",5.6 fold
same,suppression of action potential firing,[4],silenced; also recorded: potently suppressed
Fc1ccc(NC(=S)N[C@H]2CN3CCC2CC3)cc1Cl [Compound 702],EC50,α7-5HT3; [5],> 100000 nM
O=C(NC1CN2CCC1CC2)c1c[nH]c2ccccc12 (centres unmarked) [Compound 0676],EC50,α7-5HT3; [7],30 nM
same,EC50,α7^Q79G-GlyR^A298G; [8],2 nM
c1ccc2c(c1)Sc1ccccc1N2CC1CN2CCC1CC2 (centres unmarked) [Mequitazine],EC50,α7-5HT3; [5],> 30000 nM
same,EC50,"α7^Q79G,Y115F,G175K-GlyR",> 10000 nM
same,EC50,"α7^W77F,Q79G,G175K-GlyR",150 nM
